Test results from the supplement of paper PMC10307832.

Columns and labels:
Experiment in all cases: relative viability (nuclei count vs DMSO), 5 days (fraction); higher = more cells survive
YM155 + Trametinib = compound: COCC[n+]1c2c(n(Cc3cnccn3)c1C)C(=O)c1ccccc1C2=O [YM155] + CC(=O)Nc1cccc(-n2c(=O)n(C3CC3)c(=O)c3c(Nc4ccc(I)cc4F)n(C)c(=O)c(C)c32)c1 [Trametinib] (partner 0.02 µM)
Outline: (§1)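 The day after seeding in 1536-well plates, lung cancer cell lines were treated by pin tool with a single drug, or with a fixed anchor-drug dose together with five library-drug doses (not always all listed) in √10 steps. After 5 days, a combined fix-and-stain solution (final 0.05% Triton X-100, 1% formaldehyde, 1 ug/ml Hoechst) was added. Nuclei counted on 4× images gave relative viability as treated counts over vehicle counts, reported as the median of duplicate plates.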

Quizartinib + Dasatinib = compound: CC(C)(C)c1cc(NC(=O)Nc2ccc(-c3cn4c(n3)sc3cc(OCCN5CCOCC5)ccc34)cc2)no1 [Quizartinib] + Cc1nc(Nc2ncc(C(=O)Nc3c(C)cccc3Cl)s2)cc(N2CCN(CCO)CC2)n1 [Dasatinib] (partner 0.075 µM)
Outline: as §1

Quizartinib + Bortezomib = compound: CC(C)(C)c1cc(NC(=O)Nc2ccc(-c3cn4c(n3)sc3cc(OCCN5CCOCC5)ccc34)cc2)no1 [Quizartinib] + CC(C)C[C@H](NC(=O)[C@H](Cc1ccccc1)NC(=O)c1cnccn1)B(O)O [Bortezomib] (partner 0.002 µM)
Outline: as §1

YM155 + Foretinib = compound: COCC[n+]1c2c(n(Cc3cnccn3)c1C)C(=O)c1ccccc1C2=O [YM155] + COc1cc2c(Oc3ccc(NC(=O)C4(C(=O)Nc5ccc(F)cc5)CC4)cc3F)ccnc2cc1OCCCN1CCOCC1 [Foretinib] (partner 0.25 µM)
Outline: as §1

Cell Line	relative viability (YM155 + Trametinib; first compound 0.002 µM)	relative viability (YM155 + Trametinib; first compound 0.006325 µM)	relative viability (YM155 + Trametinib; first compound 0.02 µM)	relative viability (YM155 + Trametinib; first compound 0.06325 µM)	relative viability (Quizartinib + Dasatinib; first compound 0.001 µM)	relative viability (Quizartinib + Dasatinib; first compound 0.003162 µM)	relative viability (Quizartinib + Dasatinib; first compound 0.01 µM)	relative viability (Quizartinib + Dasatinib; first compound 0.03162 µM)	relative viability (Quizartinib + Dasatinib; first compound 0.1 µM)	relative viability (Quizartinib + Bortezomib; first compound 0.001 µM)	relative viability (Quizartinib + Bortezomib; first compound 0.003162 µM)	relative viability (Quizartinib + Bortezomib; first compound 0.01 µM)	relative viability (Quizartinib + Bortezomib; first compound 0.03162 µM)	relative viability (Quizartinib + Bortezomib; first compound 0.1 µM)	relative viability (YM155 + Foretinib; first compound 0.002 µM)	relative viability (YM155 + Foretinib; first compound 0.006325 µM)	relative viability (YM155 + Foretinib; first compound 0.02 µM)	relative viability (YM155 + Foretinib; first compound 0.06325 µM)
CAL-12T	0.281	0.337	0.346	0.333	0.382	0.489	0.535	0.388	0.328	0.809	1.23	0.93	0.924	1.24	1.14	1.16	0.928	0.587
COR-L23	0.629	0.577	0.566	0.192	0.452	0.437	0.557	0.414	0.461	0.965	0.908	1.14	0.902	0.889	0.941	0.866	0.658	0.244
COR-L 105	0.433	0.449	0.484	0.456	0.385	0.408	0.413	0.381	0.283	0.64	0.632	0.634	0.632	0.617	0.994	1.02	0.848	0.733
ChaGo-K-1	0.832	0.929	0.865	0.913	0.595	0.543	0.588	0.606	0.56	0.693	1.16	1.06		1.28	0.854	0.984	0.926	0.854
EKVX	0.394	0.369	0.376	0.249		0.588	0.514	0.56	0.602	0.892	0.938	1.01	1.13	1	0.858	0.757	1.32	0.69
EMC-BAC-2	0.924	0.96	0.968	0.429	0.296	0.299	0.294		0.375	0.986	1.14	0.985	0.857	1.05	1.03	0.986	0.966	0.95
EPLC-272H	0.294	0.27	0.335	0.302	0.326	0.366	0.4	0.38	0.377	0.778	0.836	0.818	0.69	0.75	0.694	0.71	0.849	0.735
H3255	0.583	0.666	0.632	0.542	0.414	0.347	0.366	0.346	0.345	0.776	0.713	0.7	0.946	0.774	0.917	0.896	0.998	1.07
HARA		0.996	0.629	0.676		0.231	0.252	0.215	0.268	0.931	1.11	1.15	1.07	1.17	0.892	1.03	0.94	1.04
HCC-15	0.331	0.389	0.283	0.423		0.58	0.594		0.6	0.759	0.992	0.987	0.984	0.988	0.992	1.05	0.888	0.515
HCC-78	0.698	0.756	0.785	0.879	0.354	0.53	0.308	0.294	0.346	0.435	0.477	0.546	0.511	0.448	0.53	0.51	0.543	0.586
HCC-366	0.353	0.421	0.371	0.353	0.531	0.548	0.575	0.612	0.657	0.989	0.974	1.13	0.967	1.01	0.924	0.899	0.951	1.11
HCC-827	0.528	0.531	0.605	0.628	0.315	0.396	0.325	0.274	0.281	0.998	1.11	1.02	1.06	1.01	1.03	1.09	1.07	1.06
HOP-62	0.389	0.389	0.419	0.424	0.564	0.589	0.638	0.652	0.662	0.564	0.72	0.73	0.517	0.749	0.979	1.04	1.17	1.02
LC-2-ad	0.928	0.925	0.866	0.87	0.48	0.799	0.546		0.5	0.955	0.954	1.11	1.06	0.996	0.923	0.967	0.884	0.666
LCLC-97TM1		0.178	0.23	0.21	0.856	0.735	0.842	0.892	0.738		0.689	0.811		0.527	0.924	0.97	1.07	0.97
LCLC-103H	0.647	0.637	0.674	0.716	0.461	0.454	0.402	0.557	0.487	0.871	1.01	0.994	1	1.12	0.802	0.722	0.815	0.839
LOU-NH91	0.8	0.747	0.807	0.788	0.574	0.615	0.553	0.524	0.62	0.481	0.509	0.538	0.433	0.513	0.92	0.98	1.02	0.937
LU99A	0.539	0.496	0.641	0.56	0.419	0.592	0.523	0.467	0.135	0.837	1.08	1.3	1.19	1.2	0.806	0.866	0.905	0.884
LXF-289	0.665	0.746	0.697	0.711	0.218	0.21	0.29	0.254	0.29	0.868	0.955	0.983	0.949	1.03	1	1.01	1.02	0.97
NCI-H23		0.361	0.498	0.225		0.733	0.696	0.712	0.853		0.937	1.08	0.97	0.888	0.643	0.718	0.959	0.785
NCI-H322M	0.55	0.5	0.48	0.536	0.208	0.255	0.27	0.265	0.266	1.15	1.26	1.27	1.24	1.15	1.02	1.08	0.931	0.981
NCI-H441	0.383	0.393	0.461	0.268	0.617	0.571	0.765		0.771	0.476	0.466	0.451	0.576	1.57	0.859	0.636	0.992	0.43
NCI-H460	0.081	0.147	0.174	0.14	0.481	0.551	0.413	0.307	0.422	0.881	0.987	1.24		0.68	0.957	1.04	1.01	0.919
NCI-H520	0.735	0.599	0.75	0.741	0.169	0.192	0.244	0.198	0.171	0.448	0.549	0.736	0.532	0.462	0.662	0.671	0.68	0.831
NCI-H596	0.783	0.784	0.744	0.859	0.658	0.546	0.578	0.592	0.495	1.15	0.92	1.1	1.19	1.2	0.79	0.833	0.946	0.829
NCI-H647	0.342	0.456	0.463	0.472	0.173	0.181	0.178	0.199	0.185	0.91	1.08	0.71	0.999	1.29	1.21	1.11	0.981	0.474
NCI-H650	1.05	0.875	0.967	1.04	0.484	0.524	0.391	0.415	0.506	0.785	0.768	0.818	0.885	1.01	0.985	0.932	0.988	1.06
NCI-H661	0.496	0.558	0.598	0.525	0.756	0.896	1.09	0.837	0.887	0.747	0.903	0.684	0.791	0.878	1.03	1.02	1.03	0.494
NCI-H727	0.412	0.396	0.391	0.411		0.377	0.411	0.322	0.318	0.656		0.955	0.767	0.833	0.951	0.902	1.14	1.03
